Measured values taken from US11986532B2 (Arvinas Operations, Inc., priority 2021, dated 2024).
Like-named read-outs stand apart in the source and are kept apart here.

Target: T1, BCL6 (Homo sapiens, UniProt P41182)
T1 construct: endogenous in cells; host or cells: T47D breast cancer epithelial cells
Test: Immunofluorescence protocol for high content imaging of BCL6 (degradation) in T47D cells, 3 days compound treatment
Assay type: cell-based
Conditions: for Dmax: read-out: Mean Dmax (%)** category; for DC50: read-out: Mean DC50 (nM)* category
Method: Immunofluorescence Protocol for High Content Imaging of BCL6
T47D cells were seeded in 100 μl volume of RPMI1640-10% FBS in a 96-well black/clear bottom plates for adherent lines (Corning #3904).
Day 1. T47D breast cancer epithelial cells were seeded at a density so that confluence is ˜70-90% at endpoint. Cells were seeded at 7K/0.1 ml/well the morning prior to the addition of exemplary bifunctional degradation compounds.
Day 2. Prepare an 11 point 3-fold serial dilution of exemplary bifunctional compound in DMSO and aliquot an appropriate volume to cell growth media to generate a 2× final concentration of exemplary bifunctional compound. Add an equal volume (0.1 ml) of 2× exemplary bifunctional compound/media mix to previously plated cells, for a final top concentration in aqueous cell growth media of 0.1 or 1 μM. Incubate for 3 days at 37° C., 5% CO2.
Day 5 Immunofluorescence. Discard cell media. Wash wells with 200 μl of room temperature phosphate-buffered saline (PBS). Prepared 4% paraformaldehyde (PFA) from 16% PFA (Electron Microscopy Sciences #15710) using 1×PBS. Fifty μl of 4% PF was added to each well and incubate for 15 minutes at room temperature to fix the cells. The PFA was aspirated and the cells washed twice with PBS (200 μl)).
Prepared 0.1% Triton X-100 in PBS using 10% triton X-100 stock. The cells were permeabilized by adding 100 ul of the 0.1% Triton X-100 in PBS to each well to permeabilize cells and incubating at room temperature for 15 minutes. Cells were washed twice with PBS.
Prepared 3% BSA/PBS (from Thermofisher #37515 Blocker BSA in TBS, 10%), and 100 ul was added to each well. The cells were incubated for at least 1 hour at room temperature.
Prepared 1% BSA/PBS using Blocker BSA/PBS, and the 3% BSA/PBS removed from the wells.
For no primary antibody controls, 50 μl 1% BSA/PBS was added.
Primary antibody (BCL6 Rb Ab, CST-14895, Cell Signaling) was diluted 1:300 in 1% BSA/PBS using Blocker BSA/PBS.
Fifty μl of primary antibody added to all remaining wells (i.e., all wells other than the primary antibody controls) and the cells were incubated overnight at 4° C. with slow orbital movement.
Day 6. Contents of the wells was removed and the cells washed four times with 200 ul PBS. 1% BSA/PBS was prepared using Blocker BSA in PBS.
Diluted secondary antibody goat anti-Rb IgG Alexa-488 1:1000, and cell mask-Alexa-647 1:3000 in 1% BSA/PBS in the same mix. Add 50 μl to each well and incubate at room temperature for 1 hour in the dark.
Cells were washed three times with 200 ul PBS, and then incubated for 10 minutes with 100 ul Hoechst dye at 1 μg/mL (20 mM stock) to stain cell nuclei. Wells were then washed with 200 μl PBS, and 100 ul of PBS was added to each well and the plate covered plate with a plastic opaque cover. Plates were stored at 4° C. and covered in aluminum foil until imaged.
Plates were equilibrated to room temperature prior to reading. The bottom of the plate was wiped with 70% isopropanol immediately prior to imaging.
10×, 4 fields/well, include Top hat smoothing in the analysis protocol.
16% paraformaldehyde: Electron Microscopy Sciences #15710
Hoechst: Thermofisher #62249
Blocker BSA in PBS, 10%: Thermofisher #37515
Blocker BSA in TBS, 10%: Thermofisher #37520
Goat anti-rabbit or mouse AlexaFluor-488: Thermofisher #A11008
Cell mask deep red AlexaFluor-647: Thermofisher #C10046
Wash buffer, PBS: 20×PBS, Thermofisher

[1] = T47D cells, 3 days compound treatment

DC50 [1] | Dmax [1] | Compound | Dmax (T47D) | DC50
 |  | CNC(=O)COc1cc2cc(Nc3nc(N4CCC(O[C@H]5C[C@H](N6CCC7(CC6)CN(c6ccc8c(c6)CN(C6CCC(=O)NC6=O)C8=O)C7)C5)CC4)ncc3Cl)ccc2n(C(C)C)c1=O (some centres unmarked) [Compound 366, 2-({6-[(5-chloro-2-{4-[(1r,3r)-3-{2-[2-(2,6-dioxopiperidin-3-yl)-1-oxo-2,3-dihydro-1H-isoindol-5-yl]-2,7-diazaspiro [3.5]nonan-7-yl}cyclobutoxy]piperidin-1-yl}pyrimidin-4-yl)amino]-2-oxo-1-(propan-2-yl)-1,2-dihydroquinolin-3-yl}oxy)-N-methylacetamide] | ≥ 70% | < 10 nM
 |  | CNC(=O)COc1cc2cc(Nc3nc(N4CCC(O[C@H]5C[C@H](N6CC[C@@H](c7ccc8c(c7F)CN([C@@H]7CCC(=O)NC7=O)C8=O)C(C)(C)C6)C5)CC4)ncc3Cl)ccc2n(C(C)C)c1=O [Compound 396, 2-({6-[(5-chloro-2-{4-[(1r,3r)-3-[(4R)-4-{2-[(3R)-2,6-dioxopiperidin-3-yl]-4-fluoro-1-oxo-2,3-dihydro-1H-isoindol-5-yl}-3,3-dimethylpiperidin-1-yl]cyclobutoxy]piperidin-1-yl}pyrimidin-4-yl)amino]-2-oxo-1-(propan-2-yl)-1,2-dihydroquinolin-3-yl}oxy)-N-methylacetamide] | ≥ 70% | < 10 nM
 |  | CNC(=O)COc1cc2cc(Nc3nc(N4CCC(CN5CCN(c6ccc7c(c6)C(=O)N(C6CCC(=O)NC6=O)C7=O)CC5)CC4)ncc3Cl)ccc2n(C(C)C)c1=O (centres unmarked) [Compound 404, 2-{[6-({5-chloro-2-[4-({4-[2-(2,6-dioxopiperidin-3-yl)-1,3-dioxo-2,3-dihydro-1H-isoindol-5-yl]piperazin-1-yl}methyl)piperidin-1-yl]pyrimidin-4-yl}amino)-2-oxo-1-(propan-2-yl)-1,2-dihydroquinolin-3-yl]oxy}-N-methylacetamide] | 50 to 70% | 10 to 50 nM
< 10 nM | ≥ 70% | CNC(=O)COc1cc2c(F)c(Nc3nc(N4CCC(O[C@H]5C[C@H](N6CCC(c7ccc8c(c7F)CN(C7CCC(=O)NC7=O)C8=O)CC6)C5)CC4)ncc3Cl)ccc2n(C(C)C)c1=O (some centres unmarked) [Compound 173] |  | 
< 10 nM | 50 to 70% | CNC(=O)COc1cc2cc(Nc3nc(N4CCC5(CCN(CC6(F)CCN(c7cc(F)cc8c7CN(C7CCC(=O)NC7=O)C8=O)CC6)CC5)CC4)ncc3Cl)ccc2n(C(C)C)c1=O (centres unmarked) [Compound 109, 2-{[6-({5-chloro-2-[9-({1-[2-(2,6-dioxopiperidin-3-yl)-6-fluoro-1-oxo-2,3-dihydro-1H-isoindol-4-yl]-4-fluoropiperidin-4-yl}methyl)-3,9-diazaspiro [5.5]undecan-3-yl]pyrimidin-4-yl}amino)-2-oxo-1-(propan-2-yl)-1,2-dihydroquinolin-3-yl]oxy}-N-methylacetamide] |  | 
≥ 100 nM | ≥ 70% | CNC(=O)COc1cc2cc(Nc3nc(N4CCN(CC5CCN(c6ccc7c(c6OC)CN(C6CCC(=O)NC6=O)C7=O)CC5)CC4)ncc3Cl)ccc2n(C(C)C)c1=O (centres unmarked) [Compound 20, 2-{[6-({5-chloro-2-[4-({1-[2-(2,6-dioxopiperidin-3-yl)-4-methoxy-1-oxo-2,3-dihydro-1H-isoindol-5-yl]piperidin-4-yl}methyl)piperazin-1-yl]pyrimidin-4-yl}amino)-2-oxo-1-(propan-2-yl)-1,2-dihydroquinolin-3-yl]oxy}-N-methylacetamide] |  | 
< 10 nM | 50 to 70% | CNC(=O)COc1cc2cc(Nc3nc(N4CCC(O[C@H]5C[C@H](N6CC[C@H](c7ccc8c(c7)CN(C7CCC(=O)NC7=O)C8=O)[C@H](F)C6)C5)CC4)ncc3Cl)ccc2n(C(C)C)c1=O (mixture of isomers) [Compound 131] |  | 
 |  | CNC(=O)COc1cc2cc(Nc3nc(N4CCC(O[C@H]5C[C@H](N6CC7(CCN(c8ccc9c(c8)C(=O)N(C8CCC(=O)NC8=O)C9)CC7)C6)C5)CC4)ncc3Cl)ccc2n(C(C)C)c1=O (some centres unmarked) [Compound 377, 2-({6-[(5-chloro-2-{4-[(1r,3r)-3-{7-[2-(2,6-dioxopiperidin-3-yl)-3-oxo-2,3-dihydro-1H-isoindol-5-yl]-2,7-diazaspiro[3.5]nonan-2-yl}cyclobutoxy]piperidin-1-yl}pyrimidin-4-yl)amino]-2-oxo-1-(propan-2-yl)-1,2-dihydroquinolin-3-yl}oxy)-N-methylacetamide] | ≥ 70% | 50 to 100 nM
< 10 nM | 50 to 70% | CNC(=O)COc1cc2cc(Nc3nc(N4CCN(CC5CCC6(CCN(c7ccc8c(c7)CN(C7CCC(=O)NC7=O)C8=O)C6)C5)CC4)ncc3Cl)ccc2n(C(C)C)c1=O (centres unmarked) [Compound 75, 2-{[6-({5-chloro-2-[4-({2-[2-(2,6-dioxopiperidin-3-yl)-1-oxo-2,3-dihydro-1H-isoindol-5-yl]-2-azaspiro[4.4]nonan-7-yl}methyl)piperazin-1-yl]pyrimidin-4-yl}amino)-2-oxo-1-(propan-2-yl)-1,2-dihydroquinolin-3-yl]oxy}-N-methylacetamide] |  | 
 |  | CNC(=O)COc1cc2cc(Nc3nc(N4CCC(O[C@H]5C[C@H](N6CCC7(CC6)CN(c6ccc8c(c6C)C(=O)N(C6CCC(=O)NC6=O)C8=O)C7)C5)CC4)ncc3Cl)ccc2n(C(C)C)c1=O (some centres unmarked) [Compound 414, 2-({6-[(5-chloro-2-{4-[(1r,3r)-3-{2-[2-(2,6-dioxopiperidin-3-yl)-4-methyl-1,3-dioxo-2,3-dihydro-1H-isoindol-5-yl]-2,7-diazaspiro[3.5]nonan-7-yl}cyclobutoxy]piperidin-1-yl}pyrimidin-4-yl)amino]-2-oxo-1-(propan-2-yl)-1,2-dihydroquinolin-3-yl}oxy)-N-methylacetamide] | ≥ 70% | < 10 nM
 |  | CNC(=O)COc1cc2cc(Nc3cc(N4CCC(CN5CCC6(CN(c7ccc8c(c7)CN(C7CCC(=O)NC7=O)C8=O)C6)C(F)(F)C5)CC4)ncc3Cl)ccc2n(C(C)C)c1=O (centres unmarked) [Compound 231, 2-{[6-({5-chloro-2-[4-({2-[2-(2,6-dioxopiperidin-3-yl)-1-oxo-2,3-dihydro-1H-isoindol-5-yl]-5,5-difluoro-2,7-diazaspiro[3.5]nonan-7-yl}methyl)piperidin-1-yl]pyridin-4-yl}amino)-2-oxo-1-(propan-2-yl)-1,2-dihydroquinolin-3-yl]oxy}-N-methylacetamide] | 50 to 70% | < 10 nM
< 10 nM | ≥ 70% | CNC(=O)COc1cc2cc(Nc3nc(N4CCC(O[C@H]5C[C@H](N6CCN(c7ccc8c(n7)C(C)N(C7CCC(=O)NC7=O)C8=O)[C@@H](C)C6)C5)CC4)ncc3Cl)ccc2n(C(C)C)c1=O (some centres unmarked) [Compound 204] |  | 
 |  | CNC(=O)COc1cc2cc(Nc3nc(N4CCC(O[C@H]5C[C@H](N6CCN(c7cc8c(cc7OC)C(=O)N(C7CCC(=O)NC7=O)C8=O)CC6)C5)CC4)ncc3Cl)ccc2n(C(C)C)c1=O (some centres unmarked) [Compound 423, 2-({6-[(5-chloro-2-{4-[(1r,3r)-3-{4-[2-(2,6-dioxopiperidin-3-yl)-6-methoxy-1,3-dioxo-2,3-dihydro-1H-isoindol-5-yl]piperazin-1-yl}cyclobutoxy]piperidin-1-yl}pyrimidin-4-yl)amino]-2-oxo-1-(propan-2-yl)-1,2-dihydroquinolin-3-yl}oxy)-N-methylacetamide] | ≥ 70% | < 10 nM
